Experiments:
Assay type in all cases: cell-based
Details in all cases: Mus musculus, 72 hours, CellTiter-Glo
BaF3-tel-KIT-T670I = experiment: Anti-proliferation assay, transformed BaF3 cells
Description: (§1) Retroviral constructs for BaF3-KIT mutants were made based on the pMSCVpuro (Clontech) backbone. For TEL-KIT vector, the first 1 kb of human TEL gene with an artificial myristoylation sequence ([…]) was cloned into the pMSCVpuro retroviral vector, followed by a 3xFLAG tag sequence. Then, the kinase domain coding sequence of KIT was inserted in-frame between TEL and 3xFLAG sequences. For full-length expression vectors, the coding sequences of KIT variants were directly cloned in pMSCVpuro vector with a 3xFLAG tag at the C-terminal end. All mutagenesis was performed using the QuikChange Site-Directed Mutagenesis Kit (Stratagene) following the manufacturer’s instructions. Retrovirus was packaged in HEK293T cells by transfecting KIT-containing MSCV vectors together with two helper plasmids. Virus supernatants were harvested 48 h after transfection and filtered before infection. Then BaF3 cells were infected with harvested virus supernatants using spinoculation protocol, and stable cell lines were obtained by puromycin selection for 48 h. The IL-3 concentrations in the culture medium were gradually withdrawn until cells were able to grow in the absence of IL-3.
(§2) Cells were grown in 96-well culture plates (2500/well). The compounds of various concentrations were added into the plates. Cell proliferation was determined after treatment with compounds for 72 hours. Cell viability was measured using the CellTiter–Glo assay (Promega, USA), according to the manufacturer’s instructions, and luminescence was measured in a multi-label reader (Envision, PerkinElmer, USA). Data were normalized to control groups (DMSO) and represented by the mean of three independent measurements with standard error <20%. GI50 values were calculated using Prism 5.0 (GraphPad Software, San Diego, CA).

BaF3-tel-KIT-N822K = experiment: Anti-proliferation assay, transformed BaF3 cells
Description: as §1, §2

BaF3-tel-KIT-V559D-V654A = experiment: Anti-proliferation assay, transformed BaF3 cells
Description: as §1, §2

BaF3-tel-KIT-V654A = experiment: Anti-proliferation assay, transformed BaF3 cells
Description: as §1, §2

BaF3-tel-KIT-V559D = experiment: Anti-proliferation assay, transformed BaF3 cells
Description: as §1, §2

BaF3-tel-KIT-L576P = experiment: Anti-proliferation assay, transformed BaF3 cells
Description: as §1, §2

BaF3-tel-KIT-D816V = experiment: Anti-proliferation assay, transformed BaF3 cells
Description: as §1, §2

BaF3-tel-KIT-T670I-V559D = experiment: Anti-proliferation assay, transformed BaF3 cells
Description: as §1, §2

BaF3-tel-KIT-A829P = experiment: Anti-proliferation assay, transformed BaF3 cells
Description: as §1, §2

BaF3-tel-KIT = experiment: Anti-proliferation assay, transformed BaF3 cells
Description: as §1, §2

BaF3 = experiment: Anti-proliferation assay, parental BaF3 cells

GI50 (BaF3-tel-KIT-T670I): 1 nM
GI50 (BaF3-tel-KIT-N822K): 120 nM
GI50 (BaF3-tel-KIT-V559D-V654A): 6 nM
GI50 (BaF3-tel-KIT-V654A): 2 nM
GI50 (BaF3-tel-KIT-V559D): < 0.3 nM
GI50 (BaF3-tel-KIT-L576P): 3 nM
GI50 (BaF3-tel-KIT-D816V): 420 nM
GI50 (BaF3-tel-KIT-T670I-V559D): 7 nM
GI50 (BaF3-tel-KIT-A829P): 130 nM
GI50 (BaF3-tel-KIT): 60 nM
SMILES: CCN(CC)CCNC(=O)c1c(C)[nH]c(/C=C2\C(=O)Nc3ccc(F)cc32)c1C [Sunitinib, reference compound]
GI50 (BaF3): 1300 nM

Source: article PMC5762309 (Oncotarget, 2017)
